Source: publication PMC10614163 (ACS nano, 2023)

How the values were obtained:
[1] = target: M^pro (Severe acute respiratory syndrome coronavirus 2, UniProt P0DTD1); assay: M^pro-mediated dye release from coacervates; assay type: biochemical, SARS-CoV-2; settings: (R5R5, D10) coacervates, 100 μM dye
[2] = for partitioning / effect on coacervates, in words: confocal microscopy, (R5R5, D10) coacervates

CN(C)c1ccc2nc3ccc(N)cc3[s+]c2c1.[Cl-] [Azure A, azure A]
Release efficiency, RE%, by M^pro [1]: 95 ± 1% | Encapsulation efficiency, EE% [2]: 50 ± 1%

CNc1ccc2nc3ccc(N)cc3[s+]c2c1 [Azure C, azure C]
Release efficiency, RE%, by M^pro [1]: 98 ± 1% | Encapsulation efficiency, EE% [2]: 65 ± 2%

O=C1OC2(c3ccc(O)cc3Oc3cc(O)ccc32)c2ccccc21 [Fluoresceine, fluoresceine]
Release efficiency, RE%, by M^pro [1]: 73 ± 7%

CC1(C)C(/C=C/C=C/C=C/C=C2\N(CCCCS(=O)(=O)[O-])c3ccc4ccccc4c3C2(C)C)=[N+](CCCCS(=O)(=O)[O-])c2ccc3ccccc3c21.[Na+] [ICG dye]
partitioning / effect on coacervates, in words [2]: rapidly cause transformation of coacervates into solid aggregates

Cc1cc2nc3ccc(N(C)C)cc3nc2cc1N.Cl [Neutral red, neutral red]
Release efficiency, RE%, by M^pro [1]: 99 ± 1% | Encapsulation efficiency, EE% [2]: 93 ± 1%

CC/N=c1\cc2oc3cc(NCC)c(C)cc3c(-c3ccccc3C(=O)OCC)c-2cc1C [Rhodamine 6G, rhodamine 6G]
Release efficiency, RE%, by M^pro [1]: 98 ± 1% | Encapsulation efficiency, EE% [2]: 64 ± 4%

CCN(CC)c1ccc2c(-c3ccccc3C(=O)O)c3ccc(=[N+](CC)CC)cc-3oc2c1 [Rhodamine B, rhodamine B]
Release efficiency, RE%, by M^pro [1]: 96 ± 2% | Encapsulation efficiency, EE% [2]: 56 ± 1%

COc1cccc2c1C(=O)c1c(O)c3c(c(O)c1C2=O)C[C@@](O)(C(=O)CO)C[C@@H]3O[C@H]1C[C@H](N)[C@H](O)[C@H](C)O1 [doxorubicin]
partitioning / effect on coacervates, in words [2]: rapidly cause transformation of coacervates into solid aggregates
